What was measured:
BTK (C481S) = BTK (C481S) (Homo sapiens (Human), UniProt Q06187, C481S); experiment: Kinase assay of BTK (C481S), [33P]-ATP filter-binding, at Reaction Biology Corporation; type: biochemical; conditions: 10 μM ATP, 6 nM BTK (C481S), pEY substrate, 20 min pre-incubation, 120 min reaction
Protocol: The kinase activity of BTK (C481S) was assayed at Reaction Biology Corporation. The substrate in the BTK (C481S) reaction, pEY (poly[Glu:Tyr] (4:1)) (Sigma, Cat. #P7244-250MG), was prepared in fresh reaction buffer (20 mM Hepes (pH 7.5), 10 mM MgCl2, 1 mM EGTA, 0.02% Brij35, 0.02 mg/ml BSA, 0.1 mM Na3VO4, 2 mM DTT, 1% DMSO). BTK(C481S) (SignalChem, Cat. #B10-12CH) was delivered into the substrate solution and mixed gently. The final concentrations of BTK (C481S) and the substrate in the reaction mixture were 6 nM and 0.2 mg/ml, respectively. Compounds were tested in 10-point concentration/response mode with 3-fold serial dilution steps starting at 1 μM.
Compounds in 100% DMSO were delivered into the kinase reaction mixture by acoustic liquid delivery technology (Echo550; nanoliter range) and incubated for 20 min at room temperature. 10 μM [^33P]-ATP (ATP: Sigma, Cat #: A7699; [^33P]-ATP: Hartmann Analytic, Cat #: SCF-301-12) was delivered into the reaction mixture to initiate the reaction. The mixture was incubated for 120 min at room temperature. Radioactivity was detected utilizing a proprietary filter-binding method. Kinase activity data were expressed as the percent remaining kinase activity in test samples compared to vehicle (DMSO) reactions. IC50 values were obtained using GraphPad Prism software.

[1] = Pharmacokinetics in male Sprague-Dawley rats, single oral gavage; type: in vivo; conditions: 5 mg/kg; for AUC(0-t) / half-life: rat, plasma
Protocol: The purpose of this study was to determine the pharmacokinetics of Example 1 and Example 2 in male Sprague-Dawley rats (Supplied by Beijing Vital River Laboratory Animal Technology Co., Ltd.).
Animals were administered with Example 1 and Example 2 by single oral gavage (PO) administration at 5 mg/kg, respectively, which was formulated in 10% DMSO (Sigma, Batch #STBJ2353): 60% PEG400 (PanReac AppliChem, Batch #1480132): 30% water at 2 mg/mL as a solution. Blood samples were collected at predose, 0.083, 0.25, 0.5, 1, 2, 4, 8, 12 and 24 hours post-dose. Concentrations of Example 1 and Example 2 in plasma were determined by LC/MS/MS (LC: Waters UPLC; MS: API4000).

[2] = Pharmacokinetics in male Beagle dogs, single oral gavage; type: in vivo
Protocol: The purpose of this study was to determine the pharmacokinetics of Example 1 in male Beagle dogs (Supplied by Marshall Bioresources, Beijing, China).
Animals were administered with Example 1 and Reference Compound 1 by single oral gavage (PO) administration at 3 mg/kg and 5 mg/kg, respectively, which was formulated in 10% DMSO (Sigma, Batch #STBJ2353): 60% PEG400 (PanReac AppliChem, Batch #1480132): 30% water at 5 mg/mL as a solution. Blood samples were collected at predose, 0.083, 0.25, 0.5, 1, 2, 4, 8, 12 and 24 hours post-dose. Concentrations of Example 1 and Reference Compound 1 in plasma were determined by LC/MS/MS (LC: Waters; MS: API4000).

DOHH2 cells = experiment: Cell proliferation assay in DOHH2 cells (MTS); type: cell-based; conditions: Homo sapiens, DOHH-2, inhibition of DOHH2 cell proliferation, 120 h incubation
Protocol: To investigate whether a compound is able to inhibit the activity of BTK in cells, a mechanism-based assay using DOHH2 (DSMZ catalog #: ACC47) cell was developed. In this assay, inhibition of BTK was detected by the inhibition of DOHH2 cells proliferation. Cells were collected and plated onto 96-well plates at the optimized cell density (5000 cells/well). Plates were incubated at 37° C., with 5% CO2 for 4h. Compounds were serially diluted and added to the plates with the final concentrations as 10000, 3333.3, 1111.1, 370.4, 123.5, 41.2, 13.7, 4.6 and 1.5 nM. Plates were incubated at 37° C., with 5% CO2 for 120 h. An aliquot of 20 μL MTS/100 μL medium mixture solution were added to each well and the plates were incubated for exactly 2 h. The reaction was stopped by adding 25 μL 10% SDS to each well. The absorbance was measured by a microplate reader at 490 nm and 650 nm (reference wavelength). IC50 was calculated using GraphPad Prism 5.0.

Chain of BTK (C481S) (Q06187 whole entry C481S): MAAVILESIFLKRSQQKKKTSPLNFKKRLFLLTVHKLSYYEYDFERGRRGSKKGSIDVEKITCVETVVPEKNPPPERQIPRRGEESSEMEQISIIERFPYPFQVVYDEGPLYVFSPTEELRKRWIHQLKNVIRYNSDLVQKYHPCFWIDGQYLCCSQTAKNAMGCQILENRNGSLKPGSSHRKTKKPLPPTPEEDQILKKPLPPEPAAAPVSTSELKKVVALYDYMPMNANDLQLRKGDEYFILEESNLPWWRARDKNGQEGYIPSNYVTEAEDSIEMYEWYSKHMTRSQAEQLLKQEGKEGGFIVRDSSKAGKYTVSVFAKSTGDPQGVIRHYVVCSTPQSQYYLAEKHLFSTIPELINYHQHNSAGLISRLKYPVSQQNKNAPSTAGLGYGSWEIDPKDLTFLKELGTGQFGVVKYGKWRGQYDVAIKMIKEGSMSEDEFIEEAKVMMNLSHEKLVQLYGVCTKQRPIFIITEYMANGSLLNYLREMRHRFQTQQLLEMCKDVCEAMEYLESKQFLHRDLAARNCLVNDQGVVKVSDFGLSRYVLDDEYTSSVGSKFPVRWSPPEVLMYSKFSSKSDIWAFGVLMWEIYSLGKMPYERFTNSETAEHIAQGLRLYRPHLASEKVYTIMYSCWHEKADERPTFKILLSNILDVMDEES

Row | Compound | IC50 (BTK (C481S)) [nM] | F [1] [%] | AUC(0-t) [1] [ng·h/mL] | half-life [1] [min] | IC50 (DOHH2 cells) [nM] | further results
1 | CS(=O)(=O)NC[C@@H]1CC[C@@H](Nc2c(F)cnc3[nH]cc(C(=O)c4ccc(Oc5c(F)cccc5F)cc4F)c23)CO1 [Example 1, N-(((2S,5R)-5-((3-(4-(2,6-difluorophenoxy)-2-fluorobenzoyl)-5-fluoro-1H-pyrrolo[2,3-b]pyridin-4-yl)amino)tetrahydro-2H-pyran-2-yl)methyl)methanesulfonamide] | 1.5 | 24.9 | 4950 | 221 | 1 | F ([2]; 3 mg/kg): 26.0%; AUC(0-t) ([2]; dog, 3 mg/kg, plasma): 3820 ng·h/mL; half-life ([2]; dog, 3 mg/kg, plasma): 936 min
2 | CS(=O)(=O)NC[C@@H]1CC[C@@H](Nc2c(F)cnc3[nH]cc(C(=O)c4ccc(Oc5ccccc5F)cc4F)c23)CO1 [Example 2, N-(((2S,5R)-5-((5-fluoro-3-(2-fluoro-4-(2-fluorophenoxy)benzoyl)-1H-pyrrolo[2,3-b]pyridin-4-yl)amino)tetrahydro-2H-pyran-2-yl)methyl)methanesulfonamide] | 0.66 | 31 | 8340 | 185 | 27 | 
3 | CCS(=O)(=O)NC[C@@H]1CC[C@@H](Nc2c(F)cnc3[nH]cc(C(=O)c4ccc(Oc5ccccc5F)cc4F)c23)CO1 [Example 3, N-(((2S,5R)-5-((5-fluoro-3-(2-fluoro-4-(2-fluorophenoxy)benzoyl)-1H-pyrrolo[2,3-b]pyridin-4-yl)amino)tetrahydro-2H-pyran-2-yl)methyl)ethanesulfonamide] |  |  |  |  | 1 | 
4 | CCS(=O)(=O)NC[C@@H]1CC[C@@H](Nc2c(F)cnc3[nH]cc(C(=O)c4ccc(Oc5c(F)cccc5F)cc4F)c23)CO1 [Example 6, N-(((2S,5R)-5-((3-(4-(2,6-difluorophenoxy)-2-fluorobenzoyl)-5-fluoro-1H-pyrrolo[2,3-b]pyridin-4-yl)amino)tetrahydro-2H-pyran-2-yl)methyl)ethanesulfonamide] |  |  |  |  | 1 | 
5 | O=C(c1ccc(Oc2c(F)cccc2F)cc1F)c1c[nH]c2ncc(F)c(N[C@@H]3CC[C@@H](CNS(=O)(=O)C4CC4)OC3)c12 [Example 8, N-(((2S,5R)-5-((3-(4-(2,6-difluorophenoxy)-2-fluorobenzoyl)-5-fluoro-1H-pyrrolo[2,3-b]pyridin-4-yl)amino)tetrahydro-2H-pyran-2-yl)methyl)cyclopropanesulfonamide] |  |  |  |  | 1 | 
6 | CCOc1cnc2[nH]cc(C(=O)c3ccc(Oc4ccccc4F)cc3F)c2c1N[C@@H]1CC[C@@H](CO)OC1 [Reference Compound 1, (5-ethoxy-4-(((3R,6S)-6-(hydroxymethyl)tetrahydro-2H-pyran-3-yl)amino)-JH-pyrrolo[2,3-b]pyridin-3-yl)(2-fluoro-4-(2-fluorophenoxy)phenyl)methanone, reference compound] |  |  |  |  |  | F ([2]; 5 mg/kg): 9.82%; AUClast ([2]; 5 mg/kg, plasma): 200 ng·h/mL; T1/2 ([2]; 5 mg/kg, plasma): 3.39 h
